Columns and labels:
[1] = tested on: Kuramochi cells labeled with mApple-H2B; assay: IncuCyte cell proliferation assay; format: cell-based; conditions: Kuramochi RB-WT, cell count 0 to 72 hours; method calls it GI50
Description: IncuCyte® assay was used to measure the effect of disclosed compounds on cell proliferation. Fluorescent microscopy images of cells were taken immediately after compound treatment and 72 hours later. Image analysis software was used to obtain cell counts as a function of compound concentration. Kuramochi cells labeled with mApple-H2B were seeded on 384-well assay-ready plates. Plates were placed in an IncuCyte® (Sartorius) and scanned at 0 and 72 hours. IncuCyte® software was used to count the number of fluorescent nuclei in each well. The fold change in cell count from 0 to 72 hours in wells treated with increasing compounds concentrations (10 pts, 1/2 log dilution, 20 μM top concentration) was normalized to DMSO control wells. The normalized cell counts were fit with dose response curves and a GI50 was calculated.

[2] = tested on: Kuramochi cells; assay: BrdU cell proliferation assay; format: cell-based; conditions: 96 h, developed on day 4, read-out: BrdU - KURAMOCHI.1: IC50
Description: A BrdU assay was used as a measure of proliferation based on the DNA replication process of proliferating cells. BrdU, a pyrimidine analog, is added to the cell culture and incorporated into the DNA of proliferating cells. The presence of the BrdU analog was then measured through a colorimetric ELISA. After fixation and permeabilization of cells, peroxidase-conjugated antibody recognizing BrdU is added and allowed to incubate, followed by thorough washing to remove unbound antibody. In order to quantify the amount of bound antibody, peroxidase substrate is added and produces a color that can be measured at 450 nm.
On day −1, Kuramochi cells (Sekisui XenoTech JCRB0098) were seeded at 2,000 cells/well in columns 2-12 of a 96 well plate (Corning, CLS3596) in 150 uL media and allowed to adhere overnight at 37 degree with 5% CO2. In order to assess specificity of the compounds, Kuramochi RB^KO cells were also plated and treated, as RB^KO cells were not expected to show a proliferative response to CCNE/CDK specific inhibitors.
On day 0, the source plate was prepared by adding 10 mM compounds and performing 3-fold serial dilutions for a 4-point dose response of each compound. Using a multichannel pipette, 2 μL of the contents of the source plate were stamped into an intermediate plate with 500 μL of RPMI 1640 Media, GlutaMAX Supplement (Life Technologies. 61870127) in each well of a Nunc 96 DeepWell™ plate, non-treated 96 DeepWell plate, 2 mL/well, sterile, natural. 60/cs (Sigma Z717274) and mixed thoroughly. 50 uL from row A of this intermediate plate were added to rows A-H of one plate of previously seeded Kuramochi cells, and each subsequent row of the intermediate plate was added to a full plate of cells.
On day 4, the plates were developed using the BrdU ELISA Cell Proliferation Assay according to manufacturer's instructions (Roche, 11647229001). Briefly, BrdU was diluted 1:100 in Gibco®. Opti-MEM® and 20 μL/well was added, shaken for 10 minutes at 350 rpm, and then returned to the incubator for 1 hour. Following incubation, the medium was discarded, and the cells were fixed by adding 200 μL of Fix/Denature solution. The anti-BrdU peroxidase antibody was diluted 1:1000 in OptiMEM, added at 100 μL/well, and incubated while shaking (350 rpm) for one hour. Three washes with PBS were performed to remove any unbound antibody, followed by the addition of 100 μL of substrate solution to each well. […] was then added to halt the reaction, and plates were read out using an Envision spectrophotometer (Perkin Elmer) set to read 450 nm absorbance. Background absorbance values from empty wells were subtracted from all samples and then normalized to DMSO treated wells.

[3] = target: CDK2/Cyclin E1 (Homo sapiens (Human), UniProt P24941); assay: Caliper LabChip EZ Reader mobility shift assay; format: biochemical; conditions: 2.5 nM CDK2/Cyclin E1 (14-475), 100 μM ATP, 1.5 μM fluorescent peptide; read-out: Caliper Assay (CDK2/CCNE1): IC50
Description: Inhibition of CDK2/Cyclin E1 activity in the presence of compounds of the present disclosure was evaluated using a Caliper LabChip® EZ Reader mobility shift assay. In the assay, activated CDK2/Cyclin E1 catalyzes the phosphorylation of a fluorescently tagged peptide 5-FAM-QSPKKG-CONH2 (PerkinElmer, FL Peptide 18) which induces a difference in capillary electrophoresis mobility. The peptide substrate and product were measured, and the conversion ratio was used to determine the inhibition (as % activity and IC50 values) of CDK2/Cyclin E1. Reactions contained 50 mM HEPES pH 7.5, 10 mM MgCl2, 1 mM EDTA, 2 mM DTT, 0.01% Brij35, 0.5 mg/mL BSA, 0.1% DMSO, 2.5 nM CDK2/Cyclin E1 (14-475), 100 μM ATP, and 1.5 μM fluorescent peptide substrate.
Dose titrations of inhibitors in 100% DMSO were combined with 3.25 nM CDK2/Cyclin E1 (14-475) and 130 μM of ATP in reaction buffer. The mixtures were incubated for 30 minutes before the addition of fluorescent peptide substrate to initiate the kinase reaction. The final conditions were 2.5 nM CDK2/Cyclin E1 (14-475), 100 μM ATP, and 1.5 μM fluorescent peptide. The reactions were stopped after 100 minutes with the addition of EDTA (6 mM final EDTA concentration). The stopped reactions were analyzed on a Caliper LabChip® EZ Reader II. The conversion ratios were normalized to yield % activity, plotted against compound concentration, and fit to a four-parameter equation to determine the IC50 for each compound.

| IC50 [3] [µM] | Structure (SMILES) | IC50 [1] [µM] | IC50 [2] [µM] |
| --- | --- | --- | --- |
|  | C[C@@H](OCC1CCCCC1)[C@H](NC(=O)[C@@H]1CN(c2cccc3cn[nH]c23)CC12CN(C(=O)[C@H]1CC1(C)C)C2)C(=O)N1CCCCC1 [Compound I-11, (S)-N-((2S,3R)-3-(cyclohexylmethoxy)-1-oxo-1-(piperidin-1-yl)butan-2-yl)-2-((S)-2,2-dimethylcyclopropanecarbonyl)-6-(1H-indazol-7-yl)-2,6-diazaspiro[3.4]octane-8-carboxamide] | 0.5 to 5 | 0.5 to 5 |
| > 10 | CNC(=O)[C@@H](NC(=O)[C@@H]1CN(C(=O)c2cnn(Cc3ccccc3)c2)CC12CN(c1nnn[nH]1)C2)[C@@H](C)OCC1CCCCC1 [Compound I-1, (S)-6-(1-Benzyl-1H-pyrazole-4-carbonyl)-N-((2S,3R)-3-(cyclohexylmethoxy)-1-(methylamino)-1-oxobutan-2-yl)-2-(1H-tetrazol-5-yl)-2,6-diazaspiro[3.4]octane-8-carboxamide] | > 20 | > 10 |
| 0.1 to 1 | COC[C@H]1CCCN(C(=O)[C@@H](NC(=O)[C@@H]2CN(c3cc(O)cc4ncsc34)CC23CN(C(=O)[C@H]2CC2(C)C)C3)[C@@H](C)OCC23CCC(CC2)OC3)C1 [Compound I-20, (S)-N-((2S,3R)-3-(2-oxabicyclo[2.2.2]octan-4-ylmethoxy)-1-((S)-3-(methoxymethyl)piperidin-1-yl)-1-oxobutan-2-yl)-2-((S)-2,2-dimethylcyclopropanecarbonyl)-6-(5-hydroxybenzo[d]thiazol-7-yl)-2,6-diazaspiro[3.4]octane-8-carboxamide] | 5 to 20 |  |
| 1 to 10 | C[C@@H](OCC12CCC(CC1)OC2)[C@H](NC(=O)[C@@H]1CN(c2cccc3ncsc23)CC12CN(C(=O)[C@H]1CC1(C)C)C2)C(=O)N(C)C [Compound I-22, (S)-N-((2S,3R)-3-(2-oxabicyclo[2.2.2]octan-4-ylmethoxy)-1-(dimethylamino)-1-oxobutan-2-yl)-6-(benzo[d]thiazol-7-yl)-2-((S)-2,2-dimethylcyclopropanecarbonyl)-2,6-diazaspiro[3.4]octane-8-carboxamide] | > 20 |  |
| 0.01 to 0.1 | C[C@@H](OCC1(CO)CC=CCC1)C(NC(=O)[C@@H]1CN(c2ncnc3ncsc23)CC12CN(C(=O)[C@H]1CC1(C)C)C2)C(=O)N1CCC(OC(F)(F)F)CC1 (stereo partly drawn) [Compound I-35, (8S)-2-((S)-2,2-dimethylcyclopropane-1-carbonyl)-N-((2S,3R)-3-((1-(hydroxymethyl)cyclohex-3-en-1-yl)methoxy)-1-oxo-1-(4-(trifluoromethoxy)piperidin-1-yl)butan-2-yl)-6-(thiazolo[4,5-d]pyrimidin-7-yl)-2,6-diazaspiro[3.4]octane-8-carboxamide] | > 20 |  |
| > 10 | CNC(=O)C(NC(=O)[C@@H]1CN(C(=O)c2cncs2)CC12CN(c1nc(C(F)(F)F)co1)C2)[C@@H](C)OCC12CCC(CC1)OC2 (stereo partly drawn) [Compound I-32, (S)-N-((2S,3R)-3-((2-oxabicyclo[2.2.2]octan-4-yl)methoxy)-1-(methylamino)-1-oxobutan-2-yl)-6-(thiazole-5-carbonyl)-2-(4-(trifluoromethyl)oxazol-2-yl)-2,6-diazaspiro[3.4]octane-8-carboxamide] | > 20 |  |
| > 10 | COC[C@H]1CCCN(C(=O)[C@@H](NC(=O)[C@@H]2CN(c3cc(C(F)(F)F)cc4ncsc34)CC23CN(C(=O)[C@H]2CC2(C)C)C3)[C@@H](C)OCC23CCC(CC2)OC3)C1 [Compound I-21, (S)-N-((2S,3R)-3-(2-oxabicyclo[2.2.2]octan-4-ylmethoxy)-1-((S)-3-(methoxymethyl)piperidin-1-yl)-1-oxobutan-2-yl)-2-((S)-2,2-dimethylcyclopropanecarbonyl)-6-(5-(trifluoromethyl)benzo[d]thiazol-7-yl)-2,6-diazaspiro[3.4]octane-8-carboxamide] | 5 to 20 |  |
| ≤ 0.01 | C[C@@H](OCC12CCC(CC1)OC2)[C@H](NC(=O)[C@@H]1CN(c2cc(F)cc3ncsc23)CC12CN(C(=O)[C@H]1CC1(C)C)C2)C(=O)N1CCC(c2ccncc2)CC1 [Compound I-33, N-((2S,3R)-3-(2-oxabicyclo[2.2.2]octan-4-ylmethoxy)-1-oxo-1-(4-(pyridin-4-yl)piperidin-1-yl)butan-2-yl)-2-((S)-2,2-dimethylcyclopropanecarbonyl)-6-(5-fluorobenzo[d]thiazol-7-yl)-2,6-diazaspiro[3.4]octane-8-carboxamide] | 0.5 to 5 |  |
| > 10 | C[C@@H](OCC1CCCCC1)[C@H](NC(=O)[C@@H]1CN(c2nccc3cn[nH]c23)CC12CN(C(=O)[C@H]1CC1(C)C)C2)C(=O)N1CCCCC1 [Compound I-12, (S)-N-((2S,3R)-3-(cyclohexylmethoxy)-1-oxo-1-(piperidin-1-yl)butan-2-yl)-2-((S)-2,2-dimethylcyclopropane-1-carbonyl)-6-(1H-pyrazolo[3,4-c]pyridin-7-yl)-2,6-diazaspiro[3.4]octane-8-carboxamide 2,2,2-trifluoroacetate] |  | > 10 |
| > 10 | CC(C)(O)C(NC(=O)[C@@H]1CN(C(=O)c2cncs2)CC12CN(c1ncco1)C2)c1cccc(C2CCOCC2)n1 (stereo partly drawn) [Compound I-5, (8S)—N-(2-hydroxy-2-methyl-1-(6-(tetrahydro-2H-pyran-4-yl) 239yridine-2-yl)propyl)-2-(oxazol-2-yl)-6-(thiazole-5-carbonyl)-2,6-diazaspiro[3.4]octane-8-carboxamide] | > 20 |  |
| 1 to 10 | C[C@@H](OCC12CCC(CC1)OC2)[C@H](NC(=O)[C@@H]1CN(c2nccc3ncsc23)CC12CN(C(=O)[C@H]1CC1(C)C)C2)C(=O)N1CCC2(CC1)COC2 [Compound I-19, (S)-N-((2S,3R)-3-(2-oxabicyclo[2.2.2]octan-4-ylmethoxy)-1-oxo-1-(2-oxa-7-azaspiro[3.5]nonan-7-yl)butan-2-yl)-2-((S)-2,2-dimethylcyclopropanecarbonyl)-6-(thiazolo[5,4-c]pyridin-4-yl)-2,6-diazaspiro[3.4]octane-8-carboxamide] | > 20 |  |
| > 10 | COC[C@H]1CCCN(C(=O)[C@@H](NC(=O)[C@H]2CN(c3nc(C(F)(F)F)cs3)CC23CN(C(=O)[C@H]2CC2(C)C)C3)[C@@H](C)OCC23CCC(CC2)OC3)C1 [I-17 2nd, N-((2S,3R)-3-(2-oxabicyclo[2.2.2]octan-4-ylmethoxy)-1-((S)-3-(methoxymethyl)piperidin-1-yl)-1-oxobutan-2-yl)-2-((S)-2,2-dimethylcyclopropanecarbonyl)-6-(4-(trifluoromethyl)thiazol-2-yl)-2,6-diazaspiro[3.4]octane-8-carboxamide] | > 20 |  |
